Source: ChEMBL document CHEMBL4673219, “Novel 5,6-disubstituted pyrrolo[2,3-d]pyrimidine derivatives as broad spectrum antiproliferative agents: Synthesis, cell based assays, kinase profile and molecular docking study” (Bioorg Med Chem, 2018)
Where “and” joins values, the source holds several entries; their conditions need not be identical. Identical values can stand only once.

Assays:
Format in all cases: functional
HOP-62 [1] = test: Growth inhibition of human HOP-62 cells assessed as growth percentage at 0.01 uM incubated for 48 hrs by sulforhodamine B assay relative to control; conditions: read-out: Activity
Hs-578T [2] = test: Growth inhibition of human Hs-578T cells assessed as growth percentage at 10 uM incubated for 48 hrs by sulforhodamine B assay relative to control; conditions: read-out: Activity
SR [3] = test: Growth inhibition of human SR cells assessed as growth percentage at 1 uM incubated for 48 hrs by sulforhodamine B assay relative to control; conditions: read-out: Activity
K562 [4] = test: Growth inhibition of human K562 cells assessed as growth percentage at 0.1 uM incubated for 48 hrs by sulforhodamine B assay relative to control; conditions: read-out: Activity
SK-MEL-5 [5] = test: Growth inhibition of human SK-MEL-5 cells assessed as growth percentage at 1 uM incubated for 48 hrs by sulforhodamine B assay relative to control; conditions: read-out: Activity
SR [6] = test: Growth inhibition of human SR cells assessed as growth percentage at 0.1 uM incubated for 48 hrs by sulforhodamine B assay relative to control; conditions: read-out: Activity
MCF7 [7] = test: Growth inhibition of human MCF7 cells incubated for 48 hrs by sulforhodamine B assay
Hs-578T [8] = test: Growth inhibition of human Hs-578T cells assessed as growth percentage at 0.1 uM incubated for 48 hrs by sulforhodamine B assay relative to control; conditions: read-out: Activity
HOP-62 [9] = test: Growth inhibition of human HOP-62 cells incubated for 48 hrs by sulforhodamine B assay
K562 [10] = test: Growth inhibition of human K562 cells assessed as growth percentage at 10 uM incubated for 48 hrs by sulforhodamine B assay relative to control; conditions: read-out: Activity
SNB-19 = test: Growth inhibition of human SNB-19 cells assessed as growth percentage at 0.1 uM incubated for 48 hrs by sulforhodamine B assay relative to control; conditions: read-out: Activity
NCI/ADR-RES = test: Growth inhibition of human NCI/ADR-RES cells incubated for 48 hrs by sulforhodamine B assay; conditions: for CC50: read-out: LC50 (the source's name)
NCI-H23 = test: Growth inhibition of human NCI-H23 cells assessed as growth percentage at 100 uM incubated for 48 hrs by sulforhodamine B assay relative to control; conditions: read-out: Activity
MCF7 [11] = test: Growth inhibition of human MCF7 cells assessed as growth percentage at 10 uM incubated for 48 hrs by sulforhodamine B assay relative to control; conditions: read-out: Activity
MDA-MB-435 = test: Growth inhibition of human MDA-MB-435 cells assessed as growth percentage at 1 uM incubated for 48 hrs by sulforhodamine B assay relative to control; conditions: read-out: Activity
HOP-62 [12] = test: Growth inhibition of human HOP-62 cells assessed as growth percentage at 100 uM incubated for 48 hrs by sulforhodamine B assay relative to control; conditions: read-out: Activity
OVCAR-4 = test: Growth inhibition of human OVCAR-4 cells assessed as growth percentage at 1 uM incubated for 48 hrs by sulforhodamine B assay relative to control; conditions: read-out: Activity
KM12 = test: Growth inhibition of human KM12 cells assessed as growth percentage at 0.01 uM incubated for 48 hrs by sulforhodamine B assay relative to control; conditions: read-out: Activity
NCI-H460 = test: Growth inhibition of human NCI-H460 cells assessed as growth percentage at 1 uM incubated for 48 hrs by sulforhodamine B assay relative to control; conditions: read-out: Activity
RXF 393 = test: Growth inhibition of human RXF 393 cells assessed as growth percentage at 10 uM incubated for 48 hrs by sulforhodamine B assay relative to control; conditions: read-out: Activity
SK-MEL-5 [13] = test: Growth inhibition of human SK-MEL-5 cells assessed as growth percentage at 0.01 uM incubated for 48 hrs by sulforhodamine B assay relative to control; conditions: read-out: Activity
OVCAR-8 = test: Growth inhibition of human OVCAR-8 cells assessed as growth percentage at 0.1 uM incubated for 48 hrs by sulforhodamine B assay relative to control; conditions: read-out: Activity
NCI-H226 = test: Growth inhibition of human NCI-H226 cells assessed as growth percentage at 10 uM incubated for 48 hrs by sulforhodamine B assay relative to control; conditions: read-out: Activity
MOLT-4 = test: Growth inhibition of human MOLT-4 cells incubated for 48 hrs by sulforhodamine B assay
IGROV-1 = test: Growth inhibition of human IGROV-1 cells incubated for 48 hrs by sulforhodamine B assay
UACC-62 = test: Growth inhibition of human UACC-62 cells assessed as growth percentage at 1 uM incubated for 48 hrs by sulforhodamine B assay relative to control; conditions: read-out: Activity
MDA-MB-231 = test: Growth inhibition of human MDA-MB-231/ATCC cells assessed as growth percentage at 10 uM incubated for 48 hrs by sulforhodamine B assay relative to control; conditions: read-out: Activity
SR [14] = test: Growth inhibition of human SR cells incubated for 48 hrs by sulforhodamine B assay; conditions: for CC50: read-out: LC50 (the source's name)
SK-OV-3 = test: Growth inhibition of human SK-OV-3 cells assessed as growth percentage at 0.01 uM incubated for 48 hrs by sulforhodamine B assay relative to control; conditions: read-out: Activity
COLO 205 = test: Growth inhibition of human COLO 205 cells assessed as growth percentage at 100 uM incubated for 48 hrs by sulforhodamine B assay relative to control; conditions: read-out: Activity
A549 = test: Growth inhibition of human A549/ATCC cells assessed as growth percentage at 10 uM incubated for 48 hrs by sulforhodamine B assay relative to control; conditions: read-out: Activity
SK-MEL-2 = test: Growth inhibition of human SK-MEL-2 cells assessed as growth percentage at 10 uM incubated for 48 hrs by sulforhodamine B assay relative to control; conditions: read-out: Activity
SF-268 = test: Growth inhibition of human SF-268 cells assessed as growth percentage at 10 uM incubated for 48 hrs by sulforhodamine B assay relative to control; conditions: read-out: Activity
NCI-H322M = test: Growth inhibition of human NCI-H322M cells assessed as growth percentage at 1 uM incubated for 48 hrs by sulforhodamine B assay relative to control; conditions: read-out: Activity
Malme-3M = test: Growth inhibition of human Malme-3M cells assessed as growth percentage at 0.1 uM incubated for 48 hrs by sulforhodamine B assay relative to control; conditions: read-out: Activity
LOX IMVI = test: Growth inhibition of human LOX IMVI cells assessed as growth percentage at 0.1 uM incubated for 48 hrs by sulforhodamine B assay relative to control; conditions: read-out: Activity
CCRF-CEM = test: Growth inhibition of human CCRF-CEM cells incubated for 48 hrs by sulforhodamine B assay
T47D = test: Growth inhibition of human T47D cells assessed as growth percentage at 1 uM incubated for 48 hrs by sulforhodamine B assay relative to control; conditions: read-out: Activity
[15] = read-out: LC50 (the source's name)

Nc1nc2[nH]c(CN3CCN(c4cc(Cl)cc(Cl)c4)CC3)c(CN3CCN(c4cc(Cl)cc(Cl)c4)CC3)c2c(=O)[nH]1
growth at 0.01 µM (HOP-62 [1]): 81%
growth at 10 µM (Hs-578T [2]): 98.8%
growth at 1 µM (SR [3]): 67%
growth at 0.1 µM (K562 [4]): 96%
growth at 1 µM (SK-MEL-5 [5]): 89%
growth at 0.1 µM (SR [6]): 105%
GI50 (MCF7 [7]; Homo sapiens, MCF7, 48 h): 1580 nM
TGI (MCF7 [7]; Homo sapiens, MCF7, 48 h): 3430 nM
growth at 0.1 µM (Hs-578T [8]): 88%
GI50 (HOP-62 [9]): 1670 nM
TGI (HOP-62 [9]): 3450 nM
growth at 10 µM (K562 [10]): -17.6%
growth at 0.1 µM (SNB-19): 91%
TGI (NCI/ADR-RES): 100000 nM and > 1000 nM
CC50 (NCI/ADR-RES): > 100000 nM
growth at 100 µM (NCI-H23): -47%
growth at 10 µM (MCF7 [11]): 23.4%
growth at 1 µM (MDA-MB-435): 88%
growth at 100 µM (HOP-62 [12]): -38%
growth at 1 µM (OVCAR-4): 83%
growth at 0.01 µM (KM12): 101%
growth at 1 µM (NCI-H460): 98%
growth at 10 µM (RXF 393): 81%
growth at 0.01 µM (SK-MEL-5 [13]): 96%
growth at 0.1 µM (OVCAR-8): 97%
growth at 10 µM (NCI-H226): 96.5%
GI50 (MOLT-4; Homo sapiens, MOLT-4, 48 h): 2580 nM
TGI (MOLT-4; Homo sapiens, MOLT-4, 48 h): 8560 nM
GI50 (IGROV-1): 1950 nM
TGI (IGROV-1): 3980 nM
growth at 1 µM (UACC-62): 96%
growth at 10 µM (MDA-MB-231): 71.9%
GI50 (SR [14]; Homo sapiens, SR): 1460 nM
TGI (SR [14]; Homo sapiens, SR): 4460 nM
CC50 (SR [14]): > 100000 nM
growth at 0.01 µM (SK-OV-3): 95%
growth at 100 µM (COLO 205): -45%
growth at 10 µM (A549): 72.7%
growth at 10 µM (SK-MEL-2): 108%
growth at 10 µM (SF-268): 81.2%
growth at 1 µM (NCI-H322M): 100%
growth at 0.1 µM (Malme-3M): 90%
growth at 0.1 µM (LOX IMVI): 99%
TGI (CCRF-CEM; Homo sapiens, CCRF-CEM): 5520 nM
GI50 (CCRF-CEM; Homo sapiens, CCRF-CEM, 48 h): 2070 nM
growth at 1 µM (T47D): 85%

CCCCCCCC(=O)Nc1nc2[nH]c(CN3CCN(Cc4cccc(F)c4)CC3)c(CN3CCN(Cc4cccc(F)c4)CC3)c2c(=O)[nH]1
growth at 0.01 µM (HOP-62 [1]): 99%
growth at 10 µM (Hs-578T [2]): -49.4%
growth at 1 µM (SR [3]): -31%
growth at 0.1 µM (K562 [4]): 87%
growth at 1 µM (SK-MEL-5 [5]): 84%
growth at 0.1 µM (SR [6]): 88%
GI50 (MCF7 [7]; 48 h): 190 nM
LC50 (MCF7 [7]; 48 h): 990 nM
TGI (MCF7 [7]; 48 h): 430 nM
GI50 (MCF7 [7]; Homo sapiens, MCF7, 48 h): 186 nM
LC50 (MCF7 [7]; Homo sapiens, MCF7, 48 h): 985 nM
TGI (MCF7 [7]; Homo sapiens, MCF7, 48 h): 428 nM
growth at 0.1 µM (Hs-578T [8]): 96%
GI50 (HOP-62 [9]): 1420 nM
TGI (HOP-62 [9]): 2850 nM
CC50 (HOP-62 [9]; [15]): 5700 nM
growth at 10 µM (K562 [10]): -65.6%
growth at 0.1 µM (SNB-19): 98%
GI50 (NCI/ADR-RES; Homo sapiens, NCI/ADR-RES): 1500 nM
TGI (NCI/ADR-RES; Homo sapiens, NCI/ADR-RES): 3010 nM
CC50 (NCI/ADR-RES; Homo sapiens, NCI/ADR-RES): 6040 nM
growth at 100 µM (NCI-H23): -53%
growth at 10 µM (MCF7 [11]): -72.9%
growth at 1 µM (MDA-MB-435): 10%
growth at 100 µM (HOP-62 [12]): -95%
growth at 1 µM (OVCAR-4): 63%
growth at 0.01 µM (KM12): 96%
growth at 1 µM (NCI-H460): 11%
growth at 10 µM (RXF 393): -92.4%
growth at 0.01 µM (SK-MEL-5 [13]): 100%
growth at 0.1 µM (OVCAR-8): 103%
growth at 10 µM (NCI-H226): 87.6%
GI50 (MOLT-4; 48 h): 260 nM
LC50 (concentration killing 50% of cells) (MOLT-4; 48 h): > 100000 nM
TGI (MOLT-4; 48 h): 740 nM
GI50 (MOLT-4; Homo sapiens, MOLT-4, 48 h): 258 nM
LC50 (concentration killing 50% of cells) (MOLT-4; Homo sapiens, MOLT-4, 48 h): 100000 nM
TGI (MOLT-4; Homo sapiens, MOLT-4, 48 h): 736 nM
GI50 (IGROV-1): 1430 nM
TGI (IGROV-1): 3200 nM
CC50 (IGROV-1; [15]): 7140 nM
growth at 1 µM (UACC-62): 92%
growth at 10 µM (MDA-MB-231): -83%
GI50 (SR [14]): 210 nM
TGI (SR [14]): 550 nM
GI50 (SR [14]; Homo sapiens, SR): 208 nM
TGI (SR [14]; Homo sapiens, SR): 548 nM
CC50 (SR [14]; Homo sapiens, SR): > 100000 nM
growth at 0.01 µM (SK-OV-3): 108%
growth at 100 µM (COLO 205): -94%
growth at 10 µM (A549): -74.7%
growth at 10 µM (SK-MEL-2): -66.9%
growth at 10 µM (SF-268): -92.2%
growth at 1 µM (NCI-H322M): 77%
growth at 0.1 µM (Malme-3M): 96%
growth at 0.1 µM (LOX IMVI): 94%
GI50 (CCRF-CEM; 48 h): 250 nM
LC50 (CCRF-CEM; 48 h): 100000 nM and > 1000 nM
GI50 (CCRF-CEM; Homo sapiens, CCRF-CEM, 48 h): 251 nM
growth at 1 µM (T47D): 80%
